The test system of assay [1] is platelets (Human Platelet Rich Plasma). The assay can be described thus: In vitro inhibition of ADP-induced platelet aggregation. Format: cell-based. The conditions noted are these: submaximal ADP (1-4 μM), mean ± s.d. As to the method: The method used in the assays is substantially the same as described in following reference: • * Sales, E., at al., Br. J. Pharmacol. 112 (1994); 1071-1076.
The compounds are tested at four different concentrations, using platelet rich plasma from not less than 6 different healthy human donors. The results obtained are compared to those from 5-isosorbide mononitrate, which is used as reference product.
The results are shown in table 2 and are expressed as IC50 (inhibitory concentration 50), which is the concentration of each of the tested compounds yielding an inhibition equal to 50% of the aggregation obtained with a submaximal concentration (1-4 μM) of ADP (a submaximal concentration of ADP is the minimal amount of ADP which produces the maximal aggregation).

Assay [2] relates to LDL. The assay can be described thus: Inhibition of LDL oxidation induced by haemin and H2O2 (conjugated dienes, 234 nm). Type of assay: biochemical, human. The conditions noted are these: compounds at 10 μM; 2.5 μM haemin and 5 μM H2O2; mean ± s.e.m. The text has this:
The method used in the assays to determine the effect of the compounds on LDL oxidation is substantially the same as described in the following references: • Sprenger T., et al., Chem. Phys. Lipids 1998; 91:39-52 • Lynch S. M., et al., Biochim. Biophys. Acta 2000; 1485:11-22 • Pedreño J., et al., Thromb. Res. 2000; 99: 51-60.
The method used in the assays to isolate LDL particles from fresh human plasma is substantially the same as described in Pedreño J., et al., Atherosclerosis 2001; 155: 99-112.
Oxidative modification of low-density lipoprotein (LDL) is currently believed to be a central event it the development of atherosclerotic cardiovascular disease. The exposition of LDL to globin-free haemin (the complex of ferric ion (Fe^3+) with protoporphyrin IX), derived from the haemoglobin in circulating erythrocytes, serves as a physiological source of pro-oxidant Fe^3+ capable to promoting LDL oxidation. The compounds were added in vitro to determine their inhibitory activity on LDL oxidation induced by haemin and H2O2. LDL at a final protein concentration of 0.2 mg/ml was incubated in the presence of 2.5 μM haemin and 5 μM H202. Oxidative modification of LDL particles was assessed by measurement of conjugated dienes. Experimental samples were incubated at 37° C. and the increase in absorbance at 234 nm was automatically recorded every 5 min for at least 5 h. The effect of compounds on the LDL oxidation induced by haemin was tested at 7 different concentrations using LDL preparations from 7 different healthy donors.

The test system of assay [3] is heparinized plasma (plasma lipoproteins). Nature of the assay: Inhibition of plasma oxidation induced by Cu2+ (absorbance 234 nm). Format: biochemical. The conditions noted are these: compounds at 10 μM; 50 μM CuSO4; mean ± s.e.m. As to the method:
The method used in the assays to determine the effect of compounds on the capacity of oxidation of the plasma is substantially the same as described in Spranger T. et al., Chem Phys Lipids 1998; 91: 39-52.
Lipoprotein oxidation induced in vitro in plasma is expected to represent a relevant model of the lipoprotein oxidation in the arterial wall. Oxidation of plasma lipoproteins was assessed as the capacity of oxidation of heparinized plasma and was measured by spectrophotometry as in increase in absorbance at 234 nm. The compounds were added in vitro to determine their inhibitory activity over the capacity of oxidation of plasma induced by Cu^2+ (CuSO4). Heparinized plasma was diluted with phosphate-buffered saline solution (PBS) containing 0.16 M NaCl, and the oxidation was started by 50 μM CuSO4. Experimental samples were incubated at 37° C. and the increase in absorbance at 234 nm was automatically recorded every 15 min for at least 12 h. The effect of compounds over the capacity of oxidation of plasma induced by Cu^2+ was tested at 7 different concentrations using heparinizaded plasma from 7 different healthy donors.

Assay [4] concerns platelet adhesion to HUVEC activated by LDLmm. The assay can be described thus: Inhibition of platelet adhesion to HUVEC activated by LDLmm. The conditions noted are these: HUVEC activated by LDLmm (50 μg/ml); mean ± s.e.m. Type of assay: cell-based, human. The text has this: The methods used in the assays to determine the effect of the compounds on platelet and monocyte adhesion to human endothelial cells are substantially the same as described in the following references: • Del Maschio A. et al., J Cell Biol 1996; 135: 497-510 • Bombeli T. et al., Blood 1999; 93: 3831-3838 • Colomé C. et al; Atherosclerosis 2000; 149: 295-302; and • Martin-Satue M. at al; British Journal of Cancer 1999; 80; 1169-1174
The adhesion of the U937-monocyte cells to confluent human microvasculature endothelial cells (HMEC-1) activated by means of TNF-α (50 ng/ml) and the platelets to human umbilical endothelial cells (HUVEC) were the methods used to determine the inhibitory effect of compounds on cellular adhesion. The adhesion of monocytes previously labeled with calcein-2M (Molecular Probes) to HMEC-1 activated by TNF-α, was assessed by determination of the associated-cell fluorescence. The adhesion of washed human platelets previously labeled with MoAb against CD36-FITC to activated-HUVEC (50 μg/ml of LDL minimally modified, LDLmm) was determined by Laser Scanning Cytometry (LSC, Olympus) determining the associated-cell fluorescence. Results are expressed as the percentage of inhibition respect to control (adhesion of the cells in the absence of compounds).

Assay [5] relates to apo E-deficient mouse (OLA129X C57/BL6J). The assay can be described thus: Atherogenesis in apo E-deficient mouse on standard diet. Type of assay: in vivo. The conditions noted are these: 5 mg/Kg/day, 12 weeks. The text has this:
Preventing and curative effect on atherogenesis of the compounds it is investigated in apo E-deficient mouse fed on standard diet model. Male and female apo E-deficient mouse (OLA129X C57/BL6J) of three months old were fed on standard diet. The control group included 8 males and 7 females mouse, while the treated group consist of 8 males and 7 females mouse. All the animals had similar cholesterol and body weight at the beginning of the experiment. Both the control and the treated groups were studied for 12 weeks. The treated group received 5 mg/Kg/day of the compound (12).
Plasma lipid parameters (total cholesterol, HDL cholesterol and triglycerides) and oxidative stress (measured as 8-iso-prostaglandin F2α levels) were measured at predetermined intervals. After completion of the administration period, the thoracic aorta was isolated and stained to determine the area of the atherosclerotic injuries deposited in the internal wall of the blood vessel in according with the Red Oil method (Lillie, R. D., 1994, Stain Technology, vol. 19, pp 55).

The IC50 is the midpoint of a concentration-inhibition curve. Take `O=[N+]([O-])O[C@@H]1CO[C@H]2[C@@H]1OC[C@@H]2S` [(1), 2-thioisosorbide 5-mononitrate]: the IC50 in assay [1] was determined as 110 ± 10 µM. In addition, the “% of increment of lag phase with respect to control (LDL oxidation)” value in assay [2] was 290 ± 8%. Also, the “% of increment of lag phase with respect to control (plasma oxidation)” value in assay [3] was 245 ± 26%.
Regarding `CC(=O)S[C@H]1CO[C@H]2[C@@H]1OC[C@H]2O[N+](=O)[O-]` [(12), 2-acetylthio-isosorbide-5-mononitrate], the IC50 in assay [1] was found to be 89 ± 10 µM. The “% of inhibition to control, platelet adhesion” value in assay [4] is given as 87.5% ± 5.1%. The “% of increment of lag phase with respect to control (LDL oxidation)” value in assay [2] came out at 117 ± 56%. In assay [3], the “% of increment of lag phase with respect to control (plasma oxidation)” value worked out at 200 ± 10%. Also, in assay [5], the “levels of triglycerides in plasma (in words)” value is “decrease” and the “oxidative stress (in words)” value is recorded as “decrease”. The “HDL-cholesterol, Female” value in assay [5] (female, control 0.4 ± 0.1, mean ± s.d.) was found to be 0.48 ± 0.13 mmol/L. For the same compound, the “Triglycerides, Female” value in assay [5] (female, control 1.9 ± 0.6, mean ± s.d.) was found to be 1.3 ± 0.2 mmol/L. In addition, the “Total cholesterol, Female” value in assay [5] (female, control 9.5 ± 2, mean ± s.d.) stood at 11.3 ± 1.5 mmol/L. In addition, in assay [5] (female, oxidative stress, control 182 ± 19, mean ± s.d.), the “8-iso-prostaglandin F2α, Female” value stood at 99 ± 7 pg/mL. In assay [5] (male, control 0.5 ± 0.15, mean ± s.d.), the “HDL-cholesterol, Male” value stood at 0.47 ± 0.15 mmol/L. In assay [5] (male, control 2.6 ± 0.6, mean ± s.d.), the “Triglycerides, Male” value came to 1.5 ± 0.4 mmol/L. Besides, the “Total cholesterol, Male” value in assay [5] (male, control 14.3 ± 2, mean ± s.d.) is 18 ± 3 mmol/L. For the same compound, the “8-iso-prostaglandin F2α, Male” value in assay [5] (male, oxidative stress, control 273 ± 19, mean ± s.d.) is 101 ± 13 pg/mL.

(Values after patent publication US8541607B2, “Disulfide, sulfide, sulfoxide, and sulfone derivatives of cyclic sugars and uses thereof” (Lacer, S.A., priority 2003, dated 2013).)
